pIC50: −log10 of the molar value.
Molecular target: T1, catalytic domain of the recombinant TACE protein (Homo sapiens, UniProt P78536)
T1 construct: The catalytic domain of the recombinant TACE protein was expressed and purified; made in house
Test: TACE FRET assay using TACE cat
Assay type: biochemical
Conditions: not given
Outline: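 Enzyme (1 ug/ml) pretreated with inhibitor for 10 min at room temperature in 50 mM Tris-HCl pH 7.4, 25 mM NaCl, 4% glycerol, 0.005% Brij 35, then started with FRET peptide Abz-[sequence]-Dpa (2 mM stock). Initial rate taken from fluorescence slope; IC50 fitted with floated Hill slope and background.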

T1 sequence (P78536 223-474 limits assumed): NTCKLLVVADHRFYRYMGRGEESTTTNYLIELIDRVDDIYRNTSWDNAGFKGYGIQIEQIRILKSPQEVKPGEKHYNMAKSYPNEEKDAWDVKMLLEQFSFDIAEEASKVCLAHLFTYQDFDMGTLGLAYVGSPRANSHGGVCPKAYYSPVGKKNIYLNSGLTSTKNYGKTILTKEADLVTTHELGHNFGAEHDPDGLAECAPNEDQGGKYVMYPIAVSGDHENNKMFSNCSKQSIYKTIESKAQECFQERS

`CC#CCOc1ccc(S(=O)(=O)N[C@@H](Cc2cn(Cc3cccc(OC)c3)c3ccc(OC)cc23)C(=O)O)cc1` [Example 52, N-{[4-(but-2-ynyloxy)phenyl]sulfonyl}-5-methoxy-1-(3-methoxybenzyl)tryptophan] and `CC#CCOc1ccc(S(=O)(=O)N[C@@H](Cc2cn(Cc3ccccc3F)c3ccc(OC)cc23)C(=O)O)cc1` [Example 58, N-{[4-(but-2-ynyloxy)phenyl]sulfonyl}-1-(2-fluorobenzyl)-5-methoxytryptophan] are the same in pIC50: 5.65 for the first, 5.65 for the second.

`CC#CCOc1ccc(S(=O)(=O)N[C@@H](Cc2c(C)n(Cc3cccc(F)c3)c3ccc(OC)cc23)C(=O)O)cc1` [Example 198, N-{[4-(but-2-ynyloxy)phenyl]sulfonyl}-1-(3-fluorobenzyl)-5-methoxy-2-methyltryptophan] and `CC#CCOc1ccc(S(=O)(=O)N[C@@H](Cc2c(C)n(Cc3ccccc3F)c3ccc(OC)cc23)C(=O)O)cc1` [Example 197, N-{[4-(but-2-ynyloxy)phenyl]sulfonyl}-1-(2-fluorobenzyl)-5-methoxy-2-methyltryptophan] are within 0.2 log units of each other in pIC50: 6.47 for the first, 6.52 for the second.

Compared with `CC#CCOc1ccc(S(=O)(=O)N[C@@H](Cc2c(C)n(Cc3ccc(Cl)cc3)c3ccc(OC)cc23)C(=O)O)cc1` [Example 201, N-{[4-(but-2-ynyloxy)phenyl]sulfonyl}-1-(4-chlorobenzyl)-5-methoxy-2-methyltryptophan], `CC#CCOc1ccc(S(=O)(=O)N[C@@H](Cc2c(C)n(Cc3ccc(C#N)cc3)c3ccc(OC)cc23)C(=O)O)cc1` [Example 205, N-{[4-(but-2-ynyloxy)phenyl]sulfonyl}-1-(4-cyanobenzyl)-5-methoxy-2-methyltryptophan] is 0.21 log units lower in pIC50: 6.54 for the first, 6.33 for the second. The first is the more potent here.

`CC#CCOc1ccc(S(=O)(=O)N[C@@H](Cc2c[nH]c3cc(C)ccc23)C(=O)O)cc1` [Example 8, N-{[4-(but-2-ynyloxy)phenyl]sulfonyl}-6-methyltryptophan] and `CC#CCOc1ccc(S(=O)(=O)N[C@@H](Cc2c[nH]c3ccc(F)cc23)C(=O)O)cc1` [Example 3, N-{[4-(but-2-ynyloxy)phenyl]sulfonyl}-5-fluorotryptophan] are within 0.2 log units of each other in pIC50: 5.80 for the first, 5.81 for the second.

`CC#CCOc1ccc(S(=O)(=O)N[C@@H](Cc2c(C)n(Cc3ccccc3C(F)(F)F)c3ccc(OC)cc23)C(=O)O)cc1` [Example 193, N-{[4-(but-2-ynyloxy)phenyl]sulfonyl}-5-methoxy-2-methyl-1-[2-(trifluoromethyl)benzyl]tryptophan] showed a pIC50 of 6.35.

Same assay, conditions: TACE FRET assay, Conc. 1 μM

In the case of `CC#CCOc1ccc(S(=O)(=O)N[C@@H](Cc2cn(Cc3ccccc3OC)c3ccc(C(=O)O)cc23)C(=O)O)cc1` [Example 107], the “TACE Inhibition (%)” value was 7.34%.

Same assay, conditions: TACE FRET assay, catalytic domain of recombinant TACE; read-out: TACE IC50

`CC#CCOc1ccc(S(=O)(=O)N[C@H](Cc2c[nH]c3ccccc23)C(=O)O)cc1` [Example 1, N-{[4-(but-2-ynyloxy)phenyl]sulfonyl}-D-tryptophan] and `CC#CCOc1ccc(S(=O)(=O)N[C@H](Cc2cn(Cc3cccc(C(F)(F)F)c3)c3ccccc23)C(=O)O)cc1` [Example 40, N-{[4-(but-2-ynyloxy)phenyl]sulfonyl}-1-[3-(trifluoromethyl)benzyl]-D-tryptophan] are within 0.2 log units of each other in pIC50: 5.60 for the first, 5.64 for the second.

For `CC#CCOc1ccc(S(=O)(=O)N[C@H](Cc2cn(Cc3ccc(C(F)(F)F)cc3)c3ccccc23)C(=O)O)cc1` [Example 41, N-{[4-(but-2-ynyloxy)phenyl]sulfonyl}-1-[4-(trifluoromethyl)benzyl]-D-tryptophan], the pIC50 was 5.36.

Same assay, conditions: read-out: TACE Inhibition (%)

First: CC#CCOc1ccc(S(=O)(=O)N[C@@H](Cc2cn(Cc3ccc(OC(F)(F)F)cc3)c3ccc(C#N)cc23)C(=O)O)cc1 [Example 140, N-{[4-(but-2-ynyloxy)phenyl]sulfonyl}-5-cyano-1-[4-(trifluoromethoxy)benzyl]tryptophan]
Second: CC#CCOc1ccc(S(=O)(=O)N[C@@H](Cc2cn(Cc3ccc(OC(F)(F)F)cc3)c3ccc(Cl)cc23)C(=O)O)cc1 [Example 78, N-{[4-(but-2-ynyloxy)phenyl]sulfonyl}-5-chloro-1-[4-(trifluoromethoxy)benzyl]tryptophan]
The inhibition at 1 µM of the first is higher: 16% for the first, 7.39% for the second.

First: CC#CCOc1ccc(S(=O)(=O)N[C@@H](Cc2cn(CC(C)C)c3ccc(Cl)cc23)C(=O)O)cc1 [Example 85, N-{[4-(but-2-ynyloxy)phenyl]sulfonyl}-5-chloro-1-isobutyltryptophan]
Second: CC#CCOc1ccc(S(=O)(=O)N[C@@H](Cc2cn(CC3CCC3)c3ccc(Cl)cc23)C(=O)O)cc1 [Example 86, N-{[4-(but-2-ynyloxy)phenyl]sulfonyl}-5-chloro-1-(cyclobutylmethyl)tryptophan]
The inhibition at 1 µM of the first is higher: 32.9% for the first, 15.7% for the second.

Compared with `CC#CCOc1ccc(S(=O)(=O)N[C@@H](Cc2c(C)n(Cc3ccc(C(F)(F)F)cc3)c3ccc(Cl)cc23)C(=O)O)cc1` [Example 93, N-{[4-(but-2-ynyloxy)phenyl]sulfonyl}-5-chloro-2-methyl-1-[4-(trifluoromethyl)benzyl]tryptophan], `CC#CCOc1ccc(S(=O)(=O)N[C@@H](Cc2c(C)n(Cc3ccc(C(C)C)cc3)c3ccc(Cl)cc23)C(=O)O)cc1` [Example 97, N-{[4-(but-2-ynyloxy)phenyl]sulfonyl}-5-chloro-1-(4-isopropylbenzyl)-2-methyltryptophan] is lower in inhibition at 1 µM: 53.8% for the first, 21.9% for the second.

First: CC#CCOc1ccc(S(=O)(=O)N[C@@H](Cc2cn(Cc3cccc(F)c3)c3ccc(C(=O)O)cc23)C(=O)O)cc1 [Example 116, N-{[4-(but-2-ynyloxy)phenyl]sulfonyl}-5-carboxy-1-(3-fluorobenzyl)tryptophan]
Second: CC#CCOc1ccc(S(=O)(=O)N[C@@H](Cc2cn(Cc3ccccc3F)c3ccc(C(=O)O)cc23)C(=O)O)cc1 [Example 115, N-{[4-(but-2-ynyloxy)phenyl]sulfonyl}-5-carboxy-1-(2-fluorobenzyl)tryptophan]
The inhibition at 1 µM of the first is higher: 9.72% for the first, 4.29% for the second.

First: CC#CCOc1ccc(S(=O)(=O)N[C@@H](Cc2cn(Cc3ccc(C#N)cc3)c3ccc(C(=O)O)cc23)C(=O)O)cc1 [Example 123, N-{[4-(but-2-ynyloxy)phenyl]sulfonyl}-5-carboxy-1-(4-cyanobenzyl)tryptophan]
Second: CC#CCOc1ccc(S(=O)(=O)N[C@@H](Cc2cn(Cc3ccc(C(C)C)cc3)c3ccc(C(=O)O)cc23)C(=O)O)cc1 [Example 120, N-{[4-(but-2-ynyloxy)phenyl]sulfonyl}-5-carboxy-1-(4-isopropylbenzyl)tryptophan]
The inhibition at 1 µM of the first is lower: -2.56% for the first, 10% for the second.

Going from `CC#CCOc1ccc(S(=O)(=O)N[C@@H](Cc2c(C)n(Cc3ccccc3OC)c3ccccc23)C(=O)O)cc1` [Example 146, N-{[4-(but-2-ynyloxy)phenyl]sulfonyl}-1-(2-methoxybenzyl)-2-methyltryptophan] to `CC#CCOc1ccc(S(=O)(=O)N[C@@H](Cc2c(C)n(Cc3ccccc3)c3ccccc23)C(=O)O)cc1` [Example 144, 1-benzyl-N-{[4-(but-2-ynyloxy)phenyl]sulfonyl}-2-methyltryptophan], the inhibition at 1 µM falls from 35.9% to 18.8%.

Compared with `CC#CCOc1ccc(S(=O)(=O)N[C@@H](Cc2cn(CC)c3ccc(C(=O)O)cc23)C(=O)O)cc1` [Example 128, N-{[4-(but-2-ynyloxy)phenyl]sulfonyl}-5-carboxy-1-ethyltryptophan], `CC#CCOc1ccc(S(=O)(=O)N[C@@H](Cc2cn(Cc3ccccc3C)c3ccc(C(=O)O)cc23)C(=O)O)cc1` [Example 104, N-{[4-(but-2-ynyloxy)phenyl]sulfonyl}-5-carboxy-1-(2-methylbenzyl)tryptophan] is higher in inhibition at 1 µM: -0.6% for the first, 5.79% for the second.

First: CC#CCOc1ccc(S(=O)(=O)N[C@@H](Cc2c(C)n(Cc3ccc(C(C)C)cc3)c3ccccc23)C(=O)O)cc1 [Example 157, N-{[4-(but-2-ynyloxy)phenyl]sulfonyl}-1-(4-isopropylbenzyl)-2-methyltryptophan]
Second: CC#CCOc1ccc(S(=O)(=O)N[C@@H](Cc2c(C)n(CC(C)C)c3ccc(Cl)cc23)C(=O)O)cc1 [Example 101, N-{[4-(but-2-ynyloxy)phenyl]sulfonyl}-5-chloro-1-isobutyl-2-methyltryptophan]
The inhibition at 1 µM of the first is lower: 34.2% for the first, 68.5% for the second.

Compared with `CC#CCOc1ccc(S(=O)(=O)N[C@@H](Cc2cn(Cc3ccccc3F)c3ccc(Cl)cc23)C(=O)O)cc1` [Example 79, N-{[4-(but-2-ynyloxy)phenyl]sulfonyl}-5-chloro-1-(2-fluorobenzyl)tryptophan], `CC#CCOc1ccc(S(=O)(=O)N[C@@H](Cc2cn(Cc3ccc4c(c3)OCO4)c3ccc(Cl)cc23)C(=O)O)cc1` [Example 83, 1-(1,3-benzodioxol-5-ylmethyl)-N-{[4-(but-2-ynyloxy)phenyl]sulfonyl}-5-chlorotryptophan] is higher in inhibition at 1 µM: 8.27% for the first, 31.1% for the second.

Compared with `CC#CCOc1ccc(S(=O)(=O)N[C@@H](Cc2cn(Cc3ccccc3C(F)(F)F)c3ccc(C(=O)O)cc23)C(=O)O)cc1` [Example 111, N-{[4-(but-2-ynyloxy)phenyl]sulfonyl}-5-carboxy-1-[2(trifluoromethyl)benzyl]tryptophan], `CC#CCOc1ccc(S(=O)(=O)N[C@@H](Cc2cn(Cc3ccc(C(=O)O)cc3)c3ccc(C(=O)O)cc23)C(=O)O)cc1` [Example 126, N-{[4-(but-2-ynyloxy)phenyl]sulfonyl}-5-carboxy-1-(4-carboxybenzyl)tryptophan] is lower in inhibition at 1 µM: 10.7% for the first, 8.36% for the second.

Compared with `CC#CCOc1ccc(S(=O)(=O)N[C@@H](Cc2c(C)n(CC)c3ccc(OC)cc23)C(=O)O)cc1` [Example 209, N-{[4-(but-2-ynyloxy)phenyl]sulfonyl}-1-ethyl-5-methoxy-2-methyltryptophan], `CC#CCOc1ccc(S(=O)(=O)N[C@@H](Cc2c(C)n(C)c3ccc(OC)cc23)C(=O)O)cc1` [Example 208, N-{[4-(but-2-ynyloxy)phenyl]sulfonyl}-5-methoxy-1,2-dimethyltryptophan] is lower in inhibition at 1 µM: 69.8% for the first, 61.8% for the second.

With `CC#CCOc1ccc(S(=O)(=O)N[C@@H](Cc2c(C)n(Cc3ccc(OC(F)(F)F)cc3)c3ccc(OC)cc23)C(=O)O)cc1` [Example 196, N-{[4-(but-2-ynyloxy)phenyl]sulfonyl}-5-methoxy-2-methyl-1-[4-(trifluoromethoxy)benzyl]tryptophan] the inhibition at 1 µM was 72.8%.
